Converted amounts (≈) assume the structure as drawn.
Experiments:
Assay type in all cases: cell-based
E. coli MP-4 = assay: Broth dilution MIC determination (CLSI), E. coli MP-4; conditions: Escherichia coli, MP4; strain MP-4, broth dilution; read-out: MIC E. coli MP-4
A. baumannii MP-15 = assay: Broth dilution MIC determination (CLSI), A. baumannii MP-15; conditions: Acinetobacter baumannii, MP15; strain MP-15, broth dilution; read-out: MIC A. baumanii MP-15
S. aureus MP-12 = assay: Broth dilution MIC determination (CLSI), S. aureus MP-12; conditions: Staphylococcus aureus, MP12; strain MP-12, broth dilution
P. aeruginosa MP-3 = assay: Broth dilution MIC determination (CLSI), P. aeruginosa MP-3; conditions: Pseudomonas aeruginosa, MP3; strain MP-3, broth dilution
K. pneumoniae MP-546 = assay: Broth dilution MIC determination (CLSI), K. pneumoniae MP-546; conditions: Klebsiella pneumoniae, MP546; strain MP-546, broth dilution

MIC (E. coli MP-4)	MIC (A. baumannii MP-15)	MIC (S. aureus MP-12)	MIC (P. aeruginosa MP-3)	MIC (K. pneumoniae MP-546)	Compound
4 to 32 µg/mL (≈ 6.54 to 52.3 µM)	> 32 µg/mL	> 32 µg/mL	> 32 µg/mL	> 32 µg/mL	CO[C@]1(C)C[C@@H](C)CN(C)[C@H](C2CCN(C)CC2)[C@H](C)OC(=O)C(C)(C)C(=O)[C@H](C)[C@H]1O[C@@H]1O[C@H](C)C[C@H](N(C)C)[C@H]1O [Compound 130, (2S,3R,6R,8R,9R,10R)-9-(((2S,3R,4S,6R)-4-(dimethylamino)-3-hydroxy-6-methyltetrahydro-2H-pyran-2-yl)oxy)-8-methoxy-2,4,6,8,10,12,12-heptamethyl-3-(1-methylpiperidin-4-yl)-1-oxa-4-azacyclotridecane-11,13-dione]
< 4 µg/mL	> 32 µg/mL	> 32 µg/mL	> 32 µg/mL	4 to 32 µg/mL (≈ 7.2 to 57.6 µM)	CO[C@]1(C)C[C@@H](C)CN(C)[C@H](C2CNC2)COC(=O)C(C)(C)C(=O)[C@H](C)[C@H]1O[C@@H]1O[C@H](C)C[C@H](N(C)C)[C@H]1O [Compound 134, (3R,6R,8R,9R,10R)-3-(azetidin-3-yl)-9-(((2S,3R,4S,6R)-4-(dimethylamino)-3-hydroxy-6-methyltetrahydro-2H-pyran-2-yl)oxy)-8-methoxy-4,6,8,10,12,12-hexamethyl-1-oxa-4-azacyclotridecane-11,13-dione]
4 to 32 µg/mL (≈ 6.39 to 51.1 µM)	> 32 µg/mL	> 32 µg/mL	> 32 µg/mL	4 to 32 µg/mL (≈ 6.39 to 51.1 µM)	CO[C@]1(C)C[C@@H](C)CN(C)[C@@H]([C@H]2CC[C@H](N(C)C)CC2)COC(=O)C(C)(C)C(=O)[C@H](C)[C@H]1O[C@@H]1O[C@H](C)C[C@H](N(C)C)[C@H]1O [Compound 137, (3S,6R,8R,9R,10R)-9-(((2S,3R,4S,6R)-4-(dimethylamino)-3-hydroxy-6-methyltetrahydro-2H-pyran-2-yl)oxy)-3-((1r,4S)-4-(dimethylamino)cyclohexyl)-8-methoxy-4,6,8,10,12,12-hexamethyl-1-oxa-4-azacyclotridecane-11,13-dione]
4 to 32 µg/mL (≈ 6.54 to 52.3 µM)	> 32 µg/mL	> 32 µg/mL	> 32 µg/mL	> 32 µg/mL	CO[C@]1(C)C[C@@H](C)CN(C)[C@@H]([C@H]2CCN(C(C)=O)C2)COC(=O)C(C)(C)C(=O)[C@H](C)[C@H]1O[C@@H]1O[C@H](C)C[C@H](N(C)C)[C@H]1O [Compound 140, (3S,6R,8R,9R,10R)-3-((S)-1-acetylpyrrolidin-3-yl)-9-(((2S,3R,4S,6R)-4-(dimethylamino)-3-hydroxy-6-methyltetrahydro-2H-pyran-2-yl)oxy)-8-methoxy-4,6,8,10,12,12-hexamethyl-1-oxa-4-azacyclotridecane-11,13-dione]
4 to 32 µg/mL (≈ 6.04 to 48.3 µM)	> 32 µg/mL	4 to 32 µg/mL (≈ 6.04 to 48.3 µM)	> 32 µg/mL	4 to 32 µg/mL (≈ 6.04 to 48.3 µM)	CO[C@]1(C)C[C@@H](C)CN(C)[C@H](C2CCN(S(C)(=O)=O)CC2)COC(=O)C(C)(C)C(=O)[C@H](C)[C@H]1O[C@@H]1O[C@H](C)C[C@H](N(C)C)[C@H]1O [Compound 142, (3R,6R,8R,9R,10R)-9-(((2S,3R,4S,6R)-4-(dimethylamino)-3-hydroxy-6-methyltetrahydro-2H-pyran-2-yl)oxy)-8-methoxy-4,6,8,10,12,12-hexamethyl-3-(1-(methylsulfonyl)piperidin-4-yl)-1-oxa-4-azacyclotridecane-11,13-dione]
4 to 32 µg/mL (≈ 6.25 to 50 µM)	> 32 µg/mL	> 32 µg/mL	> 32 µg/mL	4 to 32 µg/mL (≈ 6.25 to 50 µM)	CO[C@]1(C)C[C@@H](C)CN(C)[C@H](C2CCN(C(C)C)CC2)[C@H](C)OC(=O)C(C)(C)C(=O)[C@H](C)[C@H]1O[C@@H]1O[C@H](C)C[C@H](N(C)C)[C@H]1O [Compound 147, (2S,3R,6R,8R,9R,10R)-9-(((2S,3R,4S,6R)-4-(dimethylamino)-3-hydroxy-6-methyltetrahydro-2H-pyran-2-yl)oxy)-3-(1-isopropylpiperidin-4-yl)-8-methoxy-2,4,6,8,10,12,12-heptamethyl-1-oxa-4-azacyclotridecane-11,13-dione]

Continued, compound first:

Compound	MIC (E. coli MP-4)	MIC (A. baumannii MP-15)	MIC (S. aureus MP-12)	MIC (P. aeruginosa MP-3)	MIC (K. pneumoniae MP-546)
CO[C@]1(C)C[C@@H](C)CN(C)[C@H](C2CC3CCC(C2)N3C)COC(=O)C(C)(C)C(=O)[C@H](C)[C@H]1O[C@@H]1O[C@H](C)C[C@H](N(C)C)[C@H]1O (stereo partly drawn) [Compound 129, (3R,6R,8R,9R,10R)-9-(((2S,3R,4S,6R)-4-(dimethylamino)-3-hydroxy-6-methyltetrahydro-2H-pyran-2-yl)oxy)-8-methoxy-4,6,8,10,12,12-hexamethyl-3-(8-methyl-8-azabicyclo[3.2.1]octan-3-yl)-1-oxa-4-azacyclotridecane-11,13-dione]	< 4 µg/mL	> 32 µg/mL	> 32 µg/mL	> 32 µg/mL	4 to 32 µg/mL (≈ 6.41 to 51.3 µM)
CO[C@]1(C)C[C@@H](C)CN(C)[C@H](c2ccc(B(O)O)cc2)COC(=O)C(C)(C)C(=O)[C@H](C)[C@H]1O[C@@H]1O[C@H](C)C[C@H](N(C)C)[C@H]1O [Compound 133, (4-((3R,6R,8R,9R,10R)-9-(((2S,3R,4S,6R)-4-(Dimethylamino)-3-hydroxy-6-methyltetrahydro-2H-pyran-2-yl)oxy)-8-methoxy-4,6,8,10,12,12-hexamethyl-11,13-dioxo-1-oxa-4-azacyclotridecan-3-yl)phenyl)boronic acid]	4 to 32 µg/mL (≈ 6.45 to 51.6 µM)	> 32 µg/mL	> 32 µg/mL	> 32 µg/mL	> 32 µg/mL
CO[C@]1(C)C[C@@H](C)CN(C)[C@H]([C@@H]2CCN(C(=O)CN(C)C)C2)COC(=O)C(C)(C)C(=O)[C@H](C)[C@H]1O[C@@H]1O[C@H](C)C[C@H](N(C)C)[C@H]1O [Compound 148, (3R,6R,8R,9R,10R)-9-(((2S,3R,4S,6R)-4-(Dimethylamino)-3-hydroxy-6-methyltetrahydro-2H-pyran-2-yl)oxy)-3-((R)-1-(dimethylglycyl)pyrrolidin-3-yl)-8-methoxy-4,6,8,10,12,12-hexamethyl-1-oxa-4-azacyclotridecane-11,13-dione]	< 4 µg/mL	> 32 µg/mL	> 32 µg/mL	> 32 µg/mL	4 to 32 µg/mL (≈ 6.11 to 48.9 µM)
CO[C@]1(C)C[C@@H](C)CN(C)[C@@H](C2CN(C(=O)C(C)(C)N(C)C)C2)COC(=O)C(C)(C)C(=O)[C@H](C)[C@H]1O[C@@H]1O[C@H](C)C[C@H](N(C)C)[C@H]1O [Compound 149]	< 4 µg/mL	> 32 µg/mL	> 32 µg/mL	> 32 µg/mL	4 to 32 µg/mL (≈ 5.98 to 47.8 µM)
CO[C@]1(C)C[C@@H](C)CN(C)[C@H](C2CN(C(=O)CN3CC(F)(F)C3)C2)COC(=O)C(C)(C)C(=O)[C@H](C)[C@H]1O[C@@H]1O[C@H](C)C[C@H](N(C)C)[C@H]1O [Compound 154, (3R,6R,8R,9R,10R)-3-(1-(2-(3,3-difluoroazetidin-1-yl)acetyl)azetidin-3-yl)-9-(((2S,3R,4S,6R)-4-(dimethylamino)-3-hydroxy-6-methyltetrahydro-2H-pyran-2-yl)oxy)-8-methoxy-4,6,8,10,12,12-hexamethyl-1-oxa-4-azacyclotridecane-11,13-dione]	< 4 µg/mL	> 32 µg/mL	4 to 32 µg/mL (≈ 5.81 to 46.5 µM)	> 32 µg/mL	4 to 32 µg/mL (≈ 5.81 to 46.5 µM)

Reference: patent US20220177508A1, “C10-Cyclic Substituted 13-Membered Macrolides and Uses Thereof” (Zikani Therapeutics, Inc., priority 2018, published 2022)
